Experimental data from ChEMBL document CHEMBL3991601, “The target landscape of clinical kinase drugs” (Science, 2017).
Activity calls are given as the source filed them.

Tests used:
[1] = molecular target: Cyclin-dependent kinase 17 (Homo sapiens, UniProt Q00537)
[2] = molecular target: T1, Breakpoint cluster region protein (Homo sapiens, UniProt P11274)
T1 sequence (P11274 whole entry): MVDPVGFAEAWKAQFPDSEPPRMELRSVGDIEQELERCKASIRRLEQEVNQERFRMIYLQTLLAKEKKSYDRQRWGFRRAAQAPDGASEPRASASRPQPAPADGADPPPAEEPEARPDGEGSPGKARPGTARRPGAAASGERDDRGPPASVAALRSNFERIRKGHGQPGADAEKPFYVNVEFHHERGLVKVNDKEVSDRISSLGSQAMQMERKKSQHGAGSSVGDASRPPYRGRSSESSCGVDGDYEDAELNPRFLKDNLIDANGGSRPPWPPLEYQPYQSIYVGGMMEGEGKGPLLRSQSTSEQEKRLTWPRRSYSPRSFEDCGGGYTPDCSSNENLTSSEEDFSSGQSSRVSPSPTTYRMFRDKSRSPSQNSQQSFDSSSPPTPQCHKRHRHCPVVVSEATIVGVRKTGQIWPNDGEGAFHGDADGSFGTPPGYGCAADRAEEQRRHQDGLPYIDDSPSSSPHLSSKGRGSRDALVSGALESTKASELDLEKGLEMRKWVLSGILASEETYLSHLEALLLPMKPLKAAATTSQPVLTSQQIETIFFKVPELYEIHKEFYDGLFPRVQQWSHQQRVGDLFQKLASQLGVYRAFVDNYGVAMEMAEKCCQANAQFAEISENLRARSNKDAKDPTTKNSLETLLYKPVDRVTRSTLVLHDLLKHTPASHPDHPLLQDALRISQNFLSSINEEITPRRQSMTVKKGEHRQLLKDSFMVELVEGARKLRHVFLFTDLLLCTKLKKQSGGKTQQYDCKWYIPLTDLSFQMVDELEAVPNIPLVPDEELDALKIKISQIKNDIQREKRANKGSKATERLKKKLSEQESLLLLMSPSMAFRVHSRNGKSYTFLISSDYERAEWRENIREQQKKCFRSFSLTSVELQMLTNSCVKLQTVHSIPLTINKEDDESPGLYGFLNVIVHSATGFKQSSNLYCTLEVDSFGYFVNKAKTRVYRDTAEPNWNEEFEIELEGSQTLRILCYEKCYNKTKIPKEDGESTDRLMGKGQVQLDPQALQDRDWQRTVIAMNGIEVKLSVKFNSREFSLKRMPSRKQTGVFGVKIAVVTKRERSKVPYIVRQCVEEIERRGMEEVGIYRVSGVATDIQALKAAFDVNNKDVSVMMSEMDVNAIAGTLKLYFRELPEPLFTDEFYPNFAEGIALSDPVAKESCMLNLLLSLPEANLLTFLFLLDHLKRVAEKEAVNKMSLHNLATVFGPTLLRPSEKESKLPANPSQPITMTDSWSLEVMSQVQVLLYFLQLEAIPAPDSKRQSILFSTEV

[3] = molecular target: Ras-related protein Rab-6A (Homo sapiens, UniProt P20340)
[4] = molecular target: Cyclin-dependent kinase 3 (Homo sapiens, UniProt Q00526)
[5] = molecular target: High affinity nerve growth factor receptor (Homo sapiens, UniProt P04629)
[6] = molecular target: T2, Electron transfer flavoprotein subunit beta (Homo sapiens, UniProt P38117)
T2 sequence (P38117 whole entry): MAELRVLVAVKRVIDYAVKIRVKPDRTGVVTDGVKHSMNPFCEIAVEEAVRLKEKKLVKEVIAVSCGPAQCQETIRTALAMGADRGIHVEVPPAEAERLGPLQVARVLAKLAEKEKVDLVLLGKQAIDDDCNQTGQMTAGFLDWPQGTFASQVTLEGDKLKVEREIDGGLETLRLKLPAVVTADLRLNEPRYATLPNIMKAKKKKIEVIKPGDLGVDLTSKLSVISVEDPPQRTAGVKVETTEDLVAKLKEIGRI

[7] = molecular target: Choline-phosphate cytidylyltransferase A (Homo sapiens, UniProt P49585)
[8] = molecular target: Serine/threonine-protein kinase Nek7 (Homo sapiens, UniProt Q8TDX7)
[9] = molecular target: T3, Ras-related protein Rab-10 (Homo sapiens, UniProt P61026)
T3 sequence (P61026 whole entry): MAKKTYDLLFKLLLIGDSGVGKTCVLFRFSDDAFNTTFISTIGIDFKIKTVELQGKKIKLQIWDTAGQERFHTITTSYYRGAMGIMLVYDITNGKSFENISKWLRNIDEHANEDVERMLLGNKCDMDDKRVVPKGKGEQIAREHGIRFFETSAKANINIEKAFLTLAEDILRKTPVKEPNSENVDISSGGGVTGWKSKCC

[10] = molecular target: Membrane-associated progesterone receptor component 1 (Homo sapiens, UniProt O00264)
[11] = molecular target: T4, Long-chain-fatty-acid--CoA ligase 5 (Homo sapiens, UniProt Q9ULC5)
T4 sequence (Q9ULC5 whole entry): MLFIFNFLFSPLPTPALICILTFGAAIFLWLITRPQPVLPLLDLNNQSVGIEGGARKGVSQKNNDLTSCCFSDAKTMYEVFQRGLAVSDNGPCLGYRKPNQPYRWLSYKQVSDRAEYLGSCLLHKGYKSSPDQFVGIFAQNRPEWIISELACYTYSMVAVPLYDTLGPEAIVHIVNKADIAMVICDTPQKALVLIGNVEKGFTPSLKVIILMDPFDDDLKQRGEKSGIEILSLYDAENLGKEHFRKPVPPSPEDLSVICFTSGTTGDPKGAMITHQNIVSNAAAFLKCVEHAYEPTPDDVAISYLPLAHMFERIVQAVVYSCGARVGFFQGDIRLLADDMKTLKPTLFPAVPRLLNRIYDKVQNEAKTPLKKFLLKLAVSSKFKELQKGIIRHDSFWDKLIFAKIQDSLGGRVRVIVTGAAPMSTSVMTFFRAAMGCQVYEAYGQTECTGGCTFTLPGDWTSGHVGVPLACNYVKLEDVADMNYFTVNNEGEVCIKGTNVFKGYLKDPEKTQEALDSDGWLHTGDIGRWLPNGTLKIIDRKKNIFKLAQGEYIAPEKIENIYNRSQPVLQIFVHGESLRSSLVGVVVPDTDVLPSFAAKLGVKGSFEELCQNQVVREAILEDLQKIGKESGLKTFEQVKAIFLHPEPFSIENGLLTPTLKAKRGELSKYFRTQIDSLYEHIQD

[12] = molecular target: Serine/threonine-protein kinase PLK1 (Homo sapiens, UniProt P53350)
[13] = molecular target: Serine/threonine-protein kinase pim-2 (Homo sapiens, UniProt Q9P1W9)
Further: in the data inactive means no Kd found up to 30 µM.

Sequence of Ras-related protein Rab-6A (P20340 whole entry): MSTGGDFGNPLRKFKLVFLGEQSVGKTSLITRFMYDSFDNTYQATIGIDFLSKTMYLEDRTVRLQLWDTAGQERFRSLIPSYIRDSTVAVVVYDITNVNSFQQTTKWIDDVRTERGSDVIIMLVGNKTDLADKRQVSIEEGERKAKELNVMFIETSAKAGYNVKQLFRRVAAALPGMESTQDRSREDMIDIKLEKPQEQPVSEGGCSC
Sequence of Choline-phosphate cytidylyltransferase A (P49585 whole entry): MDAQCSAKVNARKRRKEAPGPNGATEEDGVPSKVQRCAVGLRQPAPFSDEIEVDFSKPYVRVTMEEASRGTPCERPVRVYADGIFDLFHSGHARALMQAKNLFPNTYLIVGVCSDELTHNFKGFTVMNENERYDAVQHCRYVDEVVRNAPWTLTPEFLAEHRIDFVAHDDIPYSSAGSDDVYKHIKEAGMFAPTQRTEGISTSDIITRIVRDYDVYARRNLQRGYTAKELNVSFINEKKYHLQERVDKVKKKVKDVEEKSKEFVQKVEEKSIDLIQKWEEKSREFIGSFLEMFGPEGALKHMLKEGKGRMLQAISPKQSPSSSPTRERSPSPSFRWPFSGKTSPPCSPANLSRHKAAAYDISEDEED
Sequence of Serine/threonine-protein kinase PLK1 (P53350 whole entry): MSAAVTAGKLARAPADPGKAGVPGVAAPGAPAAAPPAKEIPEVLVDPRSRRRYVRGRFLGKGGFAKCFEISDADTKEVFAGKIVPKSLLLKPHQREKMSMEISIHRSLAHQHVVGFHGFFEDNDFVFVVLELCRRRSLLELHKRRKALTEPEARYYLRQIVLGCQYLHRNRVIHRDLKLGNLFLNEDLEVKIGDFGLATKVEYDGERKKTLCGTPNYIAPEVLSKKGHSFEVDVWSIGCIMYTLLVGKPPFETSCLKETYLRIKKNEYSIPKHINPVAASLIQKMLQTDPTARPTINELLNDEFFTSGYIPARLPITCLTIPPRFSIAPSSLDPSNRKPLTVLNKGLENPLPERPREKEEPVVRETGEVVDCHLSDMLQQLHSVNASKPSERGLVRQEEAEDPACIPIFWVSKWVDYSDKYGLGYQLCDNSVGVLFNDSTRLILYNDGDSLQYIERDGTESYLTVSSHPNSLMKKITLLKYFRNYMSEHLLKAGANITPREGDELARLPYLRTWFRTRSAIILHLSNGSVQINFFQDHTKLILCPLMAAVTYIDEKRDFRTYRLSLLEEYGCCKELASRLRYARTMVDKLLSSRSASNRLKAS
Sequence of Serine/threonine-protein kinase Nek7 (Q8TDX7 whole entry): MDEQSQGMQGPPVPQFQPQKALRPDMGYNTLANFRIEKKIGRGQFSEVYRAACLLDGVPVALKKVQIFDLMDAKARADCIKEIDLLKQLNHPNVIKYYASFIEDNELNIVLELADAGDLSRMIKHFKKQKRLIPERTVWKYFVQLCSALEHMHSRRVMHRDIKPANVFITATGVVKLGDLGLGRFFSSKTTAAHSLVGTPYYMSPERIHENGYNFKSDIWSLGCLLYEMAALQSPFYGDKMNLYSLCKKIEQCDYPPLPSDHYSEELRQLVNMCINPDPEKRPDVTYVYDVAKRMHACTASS
Sequence of Cyclin-dependent kinase 3 (Q00526 whole entry): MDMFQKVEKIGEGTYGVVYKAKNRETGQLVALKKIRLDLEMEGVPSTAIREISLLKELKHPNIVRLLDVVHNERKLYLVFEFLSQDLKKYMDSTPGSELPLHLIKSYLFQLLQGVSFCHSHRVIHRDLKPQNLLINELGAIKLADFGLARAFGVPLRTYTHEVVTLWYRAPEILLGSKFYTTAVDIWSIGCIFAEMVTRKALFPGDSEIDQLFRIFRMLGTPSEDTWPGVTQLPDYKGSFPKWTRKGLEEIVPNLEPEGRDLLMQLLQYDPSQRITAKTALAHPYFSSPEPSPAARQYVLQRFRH
Sequence of Serine/threonine-protein kinase pim-2 (Q9P1W9 whole entry): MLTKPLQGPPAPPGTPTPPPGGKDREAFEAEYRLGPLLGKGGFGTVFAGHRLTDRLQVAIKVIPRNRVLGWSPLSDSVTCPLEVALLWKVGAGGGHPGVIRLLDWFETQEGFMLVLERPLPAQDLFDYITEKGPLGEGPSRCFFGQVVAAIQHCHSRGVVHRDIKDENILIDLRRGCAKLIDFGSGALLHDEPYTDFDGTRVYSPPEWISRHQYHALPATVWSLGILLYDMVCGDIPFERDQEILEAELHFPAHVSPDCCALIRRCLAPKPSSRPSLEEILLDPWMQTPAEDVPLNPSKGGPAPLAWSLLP
Sequence of Cyclin-dependent kinase 17 (Q00537 whole entry): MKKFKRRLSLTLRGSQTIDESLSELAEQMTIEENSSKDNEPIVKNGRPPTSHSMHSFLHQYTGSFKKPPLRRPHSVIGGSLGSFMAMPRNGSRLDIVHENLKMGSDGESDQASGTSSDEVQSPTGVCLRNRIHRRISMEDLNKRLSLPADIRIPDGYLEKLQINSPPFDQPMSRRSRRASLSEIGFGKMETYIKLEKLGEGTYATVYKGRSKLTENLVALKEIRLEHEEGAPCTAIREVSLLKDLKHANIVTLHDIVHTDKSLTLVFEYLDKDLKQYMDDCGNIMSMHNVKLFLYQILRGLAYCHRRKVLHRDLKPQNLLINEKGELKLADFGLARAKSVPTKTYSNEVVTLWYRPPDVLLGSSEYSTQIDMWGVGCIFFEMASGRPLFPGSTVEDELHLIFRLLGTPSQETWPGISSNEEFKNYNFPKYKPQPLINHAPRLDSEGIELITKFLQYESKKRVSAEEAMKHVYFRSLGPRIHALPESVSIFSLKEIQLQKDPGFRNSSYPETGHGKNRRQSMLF
Sequence of High affinity nerve growth factor receptor (P04629 whole entry): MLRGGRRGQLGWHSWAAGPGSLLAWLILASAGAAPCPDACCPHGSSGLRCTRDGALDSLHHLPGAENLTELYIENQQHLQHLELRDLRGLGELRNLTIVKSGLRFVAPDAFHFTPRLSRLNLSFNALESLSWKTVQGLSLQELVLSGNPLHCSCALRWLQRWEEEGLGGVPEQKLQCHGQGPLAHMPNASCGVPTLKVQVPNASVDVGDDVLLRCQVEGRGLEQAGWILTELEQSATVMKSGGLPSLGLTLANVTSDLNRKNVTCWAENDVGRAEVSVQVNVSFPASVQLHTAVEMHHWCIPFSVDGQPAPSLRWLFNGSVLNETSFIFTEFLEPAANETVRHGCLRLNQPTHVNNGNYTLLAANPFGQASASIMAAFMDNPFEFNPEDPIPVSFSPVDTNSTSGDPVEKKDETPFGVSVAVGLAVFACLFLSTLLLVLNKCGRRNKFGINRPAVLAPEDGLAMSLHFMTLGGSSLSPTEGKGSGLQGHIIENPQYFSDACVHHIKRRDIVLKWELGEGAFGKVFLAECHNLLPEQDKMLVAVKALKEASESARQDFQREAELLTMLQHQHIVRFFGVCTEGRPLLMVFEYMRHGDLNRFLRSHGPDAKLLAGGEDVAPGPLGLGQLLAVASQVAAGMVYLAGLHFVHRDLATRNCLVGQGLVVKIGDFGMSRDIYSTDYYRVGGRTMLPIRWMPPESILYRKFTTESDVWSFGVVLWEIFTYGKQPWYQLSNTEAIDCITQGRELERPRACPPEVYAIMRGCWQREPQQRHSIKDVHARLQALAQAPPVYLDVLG
Sequence of Membrane-associated progesterone receptor component 1 (O00264 whole entry): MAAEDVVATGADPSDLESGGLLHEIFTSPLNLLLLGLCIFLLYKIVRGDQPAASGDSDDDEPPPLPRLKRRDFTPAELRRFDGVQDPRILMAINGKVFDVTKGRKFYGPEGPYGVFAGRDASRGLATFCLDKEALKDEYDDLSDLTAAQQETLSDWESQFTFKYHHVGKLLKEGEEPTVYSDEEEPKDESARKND

SMILES | Kd [1] | Kd [2] | Kd [3] | Kd [4] | Kd [5] | Kd [6] | Kd [7] | Kd [8] | Kd [9] | Kd [10] | Kd [11] | Kd [12] | Kd [13]
CC(=O)c1cnc2ccc(-c3cc(Cl)c(O)c(Cl)c3)nc2c1N[C@H]1CC[C@H](CN(C)C)CC1 | > 30 µM (inactive) | 0.014 µM (active) | > 30 µM (inactive) | > 30 µM (inactive) | > 30 µM (inactive) | > 30 µM (inactive) | > 30 µM (inactive) | > 30 µM (inactive) | > 30 µM (inactive) |  |  |  | 
Cc1nc2cc(-c3nn(C(C)C)c4ncnc(N)c34)ccc2o1 | > 30 µM (inactive) | > 30 µM (inactive) | > 30 µM (inactive) | > 30 µM (inactive) | > 30 µM (inactive) | > 30 µM (inactive) | > 30 µM (inactive) |  | > 30 µM (inactive) | > 30 µM (inactive) | > 30 µM (inactive) | > 30 µM (inactive) | 
CC(C)(C)c1nc(-c2cccc(NS(=O)(=O)c3c(F)cccc3F)c2F)c(-c2ccnc(N)n2)s1 [DABRAFENIB] | 0.036 µM (active) | > 30 µM (inactive) | > 30 µM (inactive) |  |  | > 30 µM (inactive) | > 30 µM (inactive) |  | > 30 µM (inactive) | > 30 µM (inactive) |  | > 30 µM (inactive) | > 30 µM (inactive)
CCn1cc(-c2ccnc3[nH]c(-c4cccc(CN(C)C)c4)cc23)c(-c2ccc(NC(=O)N(C)C)cc2)n1 [GSK-1070916] | > 30 µM (inactive) | > 30 µM (inactive) | > 30 µM (inactive) | > 30 µM (inactive) | 5.95 µM (active) |  | > 30 µM (inactive) | > 30 µM (inactive) | > 30 µM (inactive) |  |  |  | > 30 µM (inactive)
O=C(Nc1cc(C(F)(F)F)cc(C(F)(F)F)c1)c1cc(Cl)ccc1O [IMD-0354] | > 30 µM (inactive) | > 30 µM (inactive) | > 30 µM (inactive) | > 30 µM (inactive) | > 30 µM (inactive) |  | > 30 µM (inactive) | > 30 µM (inactive) |  | > 30 µM (inactive) |  |  | 
CNC(=O)c1nn(C)c2c1C(C)(C)Cc1cnc(Nc3ccc(N4CCN(C)CC4)cc3)nc1-2 [MILCICLIB] |  | 0.685 µM (active) | > 30 µM (inactive) | > 30 µM (inactive) | 2.96 µM (active) |  | > 30 µM (inactive) | > 30 µM (inactive) | > 30 µM (inactive) | > 30 µM (inactive) | > 30 µM (inactive) |  | > 30 µM (inactive)
NC1(c2ccc(-c3nc4ccn5c(=O)[nH]nc5c4cc3-c3ccccc3)cc2)CCC1 [MK-2206] | > 30 µM (inactive) | > 30 µM (inactive) |  | > 30 µM (inactive) | > 30 µM (inactive) |  | > 30 µM (inactive) | > 30 µM (inactive) | > 30 µM (inactive) | > 30 µM (inactive) | > 30 µM (inactive) |  | 
Cc1[nH]c(/C=C2\C(=O)Nc3ccccc32)c(C)c1CCC(=O)O [ORANTINIB] | > 30 µM (inactive) | > 30 µM (inactive) |  | > 30 µM (inactive) |  | > 30 µM (inactive) | > 30 µM (inactive) | > 30 µM (inactive) | > 30 µM (inactive) | > 30 µM (inactive) | > 30 µM (inactive) |  | 
CCCCCCCCCCCCCCCCCCOP(=O)([O-])OC1CC[N+](C)(C)CC1 [PERIFOSINE] | > 30 µM (inactive) | > 30 µM (inactive) | > 30 µM (inactive) | > 30 µM (inactive) | > 30 µM (inactive) | > 30 µM (inactive) | > 30 µM (inactive) |  | > 30 µM (inactive) | > 30 µM (inactive) | > 30 µM (inactive) |  | > 30 µM (inactive)
CO[C@H]1C[C@@H]2CC[C@@H](C)[C@@](O)(O2)C(=O)C(=O)N2CCCC[C@H]2C(=O)O[C@H]([C@H](C)C[C@@H]2CC[C@@H](O)[C@H](OC)C2)CC(=O)[C@H](C)/C=C(\C)[C@@H](O)[C@@H](OC)C(=O)[C@H](C)C[C@H](C)/C=C/C=C/C=C/1C [SIROLIMUS] | > 30 µM (inactive) | > 30 µM (inactive) | > 30 µM (inactive) |  | > 30 µM (inactive) | > 30 µM (inactive) | > 30 µM (inactive) |  | > 30 µM (inactive) |  |  | > 30 µM (inactive) | 
COc1cc2c(Nc3ccc(Cl)c(Cl)c3F)ncnc2cc1OC[C@@H]1C[C@@H]2CN(C)C[C@@H]2C1 [TESEVATINIB] | > 30 µM (inactive) | 0.113 µM (active) | > 30 µM (inactive) | > 30 µM (inactive) | > 30 µM (inactive) |  | > 30 µM (inactive) | > 30 µM (inactive) | > 30 µM (inactive) | > 30 µM (inactive) | > 30 µM (inactive) |  | 
C[C@@H](NC(=O)c1ncnc(N)c1Cl)c1ncc(C(=O)Nc2cc(C(F)(F)F)c(Cl)cn2)s1 [TOVORAFENIB] | > 30 µM (inactive) | 0.296 µM (active) | > 30 µM (inactive) | > 30 µM (inactive) | > 30 µM (inactive) |  | > 30 µM (inactive) |  | > 30 µM (inactive) | > 30 µM (inactive) |  |  | > 30 µM (inactive)
Cc1cc(Nc2ncnc3ccc(NC4=NC(C)(C)CO4)cc23)ccc1Oc1ccn2ncnc2c1 [TUCATINIB] | > 30 µM (inactive) | > 30 µM (inactive) | > 30 µM (inactive) | > 30 µM (inactive) | > 30 µM (inactive) |  | > 30 µM (inactive) | > 30 µM (inactive) | > 30 µM (inactive) | > 30 µM (inactive) |  |  | 
C[C@@H](N)c1ccc(C(=O)Nc2ccnc3[nH]ccc23)cc1 [Y-39983] | > 30 µM (inactive) | > 30 µM (inactive) | > 30 µM (inactive) | > 30 µM (inactive) | > 30 µM (inactive) |  | > 30 µM (inactive) |  | > 30 µM (inactive) |  | > 30 µM (inactive) | > 30 µM (inactive) | 
